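Exposure lasted 48 hours, with cells grown in 96-well plates and compounds tested at five concentrations. The concentration for full growth arrest is given as TGI.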
Key:
Experiment in all cases: NCI tumour cell line growth inhibition, 48 h
SK-OV-3 ovarian = tested on: SK-OV-3 ovarian
SF-539 CNS = tested on: SF-539 CNS
TK-10 renal = tested on: TK-10 renal
IGROV1 ovarian = tested on: IGROV1 ovarian
T-47D breast = tested on: T-47D breast
DU-145 prostate = tested on: DU-145 prostate
SNB-75 CNS = tested on: SNB-75 CNS
786-0 renal = tested on: 786-0 renal
NCI-H522 lung = tested on: NCI-H522 lung
COLO 205 colon = tested on: COLO 205 colon

Row | Compound | TGI (SK-OV-3 ovarian) [µM] | TGI (SF-539 CNS) [µM] | TGI (TK-10 renal) [µM] | TGI (IGROV1 ovarian) [µM] | TGI (T-47D breast) [µM] | TGI (DU-145 prostate) [µM] | TGI (SNB-75 CNS) [µM] | TGI (786-0 renal) [µM] | TGI (NCI-H522 lung) [µM] | TGI (COLO 205 colon) [µM]
1 | CC(=O)Oc1c(C)c2c(c3ccccc13)OC(C)(C)C2 | 66.3 | 37.3 | 32.9 | 30.9 | 60 | 31 | 33.1 | 34.3 | 36.7 | 38.5
2 | CCCOC1OC(CS(=O)(=O)O)C(O)C(O)C1O (stereo not given) | > 100 | – | > 100 | > 100 | > 100 | > 100 | > 100 | – | – | > 100
3 | COc1ccc2c(CCNS(=O)(=O)c3ccccc3)c(C(C)=O)[nH]c2c1 | > 100 | > 100 | > 100 | > 100 | > 86.8 | > 100 | > 100 | > 100 | > 100 | > 100
4 | O=C(NNC(=S)NCc1ccccc1)C12CC3CC(CC(C3)C1)C2 | > 100 | > 100 | > 100 | > 100 | > 100 | > 100 | > 100 | > 100 | > 100 | 44.1
5 | CC[C@@H](/C=C\CCC1(C[C@@H](N)CCC=C(C)C)OCCO1)O[Si](C(C)C)(C(C)C)C(C)C | 37.8 | 34.1 | 31.2 | 30.6 | 48.7 | 40.3 | 34.6 | 31.8 | 39.7 | 27.3
6 | O=C(/C=C/c1ccc(O)c(O)c1)NCCc1ccc(-c2ccccc2)cc1 | > 100 | > 100 | 63.3 | – | > 100 | > 100 | > 100 | > 100 | > 100 | > 100
7 | CN1C(=O)C23CCCCC2CC1(c1ccccc1)S3 (stereo not given) | > 100 | > 100 | > 100 | > 100 | > 100 | > 100 | – | > 100 | > 100 | > 100
8 | CC(=O)Nc1ccc2cc3[nH]c4cc(NC(C)=O)ccc4c3nc2c1 | > 100 | > 100 | > 100 | > 100 | > 100 | > 100 | > 100 | > 100 | > 100 | > 100
9 | N#CCCN(CCC#N)c1ccc(C(N=Nc2ccc(Cl)cc2)=Nc2ccc(F)cc2)cc1 | > 100 | > 100 | > 100 | > 100 | > 100 | > 100 | > 100 | > 100 | > 100 | > 100
10 | NC(N)=NS(=O)(=O)c1ccc(NC(=O)c2ccc3[nH]c4ccccc4c(=O)c3c2)cc1 | > 100 | > 100 | > 100 | > 100 | > 100 | > 100 | > 100 | > 100 | > 100 | > 100
11 | NC(=S)NS(=O)(=O)c1ccc(F)cc1F | > 100 | > 100 | > 100 | > 100 | > 100 | > 100 | > 100 | > 100 | > 100 | > 100

Source: PubChem BioAssay (NCI)
